# Reference: US5091539A, “Azolyl cycloalkanol derivatives and agricultural fungicides” (Shionogi & Co., Ltd., priority 1984, dated 1992)
# Columns and labels:
# Format in all cases: in vivo
# Sphaerotheca fuliginea [1] = test: Control test to powdery mildew of cucumber (foliar and soil treatment); details: for Protective Index, Foliar Treatment / Protective Index, Soil Treatment: first Table 4, 125 ppm, 14 days; for Foliar Treatment, Curative Effect / Foliar Treatment, Protective Effect / Soil Treatment, Protective Effect / Powdery mildew, Foliar Treatment, Curative Effect / Powdery mildew, Foliar Treatment, Protective Effect / Powdery mildew, Soil Treatment, Protective Effect: index 0-10
# Procedure: (1) Seeds of cucumber (Cultivar: Matsukaze) were sown in a pot of 9 cm in diameter and the pots were kept in a green house until the plant was grown for 2-3 leaf stage. The first leaf was sprayed with, (i) 3 ml each of solutions containing the test compound at the prescribed concetrations and dried by the air (foliar treatment). Inoculation of spore suspension of Sphaerotheca fuliginea by spraying was practised 2 days before the treatment (curative effect) or 1 day after the treatment (protective effect). Alternatively, (ii) 5 ml of the solution was applied at the root of the seedlings (soil treatment). The pots were kept in a greenhouse for 2 days and inoculation was practised in the same manner noted above. (iii) After sprayed with 3 ml of a solution of the test compound at a concentration of 125 ppm and dried by the air, the treated pots were set in a greenhouse. Untreated pots were placed next to the treated pots. Those treated and untreated plants were inoculated with spore suspension. Protective effect of the test compounds by vapor was thus checked. The effect was examined 14 days after the inoculation of the spores.
# 0: Disease sign is observed on the whole leaf.
# 3: Disease sign is observed on the leaf in about 50%.
# 5: Disease sign is observed on the leaf in about 30%.
# 7: Disease sign is observed on the leaf in about 20%.
# 9: a little disease sign is observed.
# (§1) (1) Test methods and evaluation are the same as those in Tests 2, 4 and 6.
# Puccinia coronata = test: Control test of crown rust of oat; details: 125 ppm
# Procedure: (1) Young oats (Cultivar: Pc38) grown in pots in a greenhouse were (i) sprayed with 10 ml each of solution of the test compounds at a prescribed concentration and after air-drying, they were inoculated with 15 mg of uredospores of Puccinia coronata per 20 pots (protective spraying) or (ii) sprayed with the test solution 3 days after inoculation of uredospores. After each plant was kept at 20°-25° C. in a greenhouse for 2 weeks, number of uredia was counted on the first leaf.
# Rhizoctonia solani = test: Control test to damping-off of cucumber (Rhizoctonia solani); details: soil drench, 14 days
# Procedure: (§2) (1) The fungus causing damping-off of cucumber seedlings, Rhizoctonia solani or Fusarium oxysporum was cultured on a wheat bran medium at 28° C. for 5 days, which was mixed with sterilized soil and cultured for 2 days to prepare the inoculum. Sterilized soil (150 g) was put into a pot of 9 cm in diameter. The surface of the spot was covered with the above inoculum. […] Twenty cucumber seeds (Cultivar: Matsukaze) were sown 2 days after. The pots were kept at 30°±2° C. for 14 days. The infection was observed 14 days after and disease degree and percent disease degree were obtained by setting an evaluation index for each disease sympton.
# (§3) (2) Evaluation [formula] wherein a: number of seeds without germination b: number of seedlings showing damping-off c: number of wilted seedlings d: number of seedlings being a little brownish in cotyledons or at the bottom of the stem e: number of uninfected seedlings [formula] wherein a: number of seeds without germination or seedlings with damping-off b: number of wilted seedlings c: number of seedlings being a little brownish in cotyledons or at the bottom of the stem d: number of uninfected seedlings [formula]
# Fusarium oxysporum = test: Control test to damping-off of cucumber (Fusarium oxysporum); details: 500 ppm, soil drench, 14 days
# Procedure: as §2, §3
# Botrytis cinerea = test: Control test of Botrytis rot (gray mold) of cucumber
# Procedure: (1) Seedlings of cucumber (Cultivar: Matsukaze) were planted in a pot of 9 cm in diameter. The first leaf was sprayed with 3 ml each of solutions containing the test compound at the concentration of 125 or 31.3 ppm and the plant was dried by the air. After inoculation of the spores of Botrytis cinerea, the plants were kept at 20°±2° C. and 90-100% humidity ((i) protective spraying). Alternatively, the spores were inoculated at first and when the leaves suffered a little (about 2 days after), the solutions of the test compounds were sprayed ((ii) curative spraying). Evaluation was practised 3 days after the inoculation. Percent disease control was calculated by the ratio of diameter of diseased area in treated and untreated plants.
# as §1
# Sclerotinia sclerotiorum = test: Control test to Sclerotinia rot of cucumber
# Text: (1) This test was practised in the same manner as in the above test, control test of Botrytis rot (gray mold) of cucumber, except for using the mycelium of Sclerotinia sclerotiorum as inoculm. The same as in test 2.
# Sphaerotheca fuliginea [2] = test: Control test to powdery mildew of cucumber by vapor (filter paper disks)
# Procedure: (1) The first leaves of young cucumber (Cultivar: Matsukaze) planted in pot of 9 cm in diameter were inoculated with spore suspension of Sphaerotheca fuliginea. After the plants were kept in a greenhouse for 2 days, thin cover plates, 15 mm in diameter, were put on the first leaves. Filter paper disks soaked with 80 μl of test solution at a concentration of 31.3, 7.8, 2.0 or 0.5 ppm were put on the plates for 3 days. Disease degrees were observed 14 days after the inoculation.
# It is evaluated as + when an inhibition zone was observed around the plate, as ± when the inhibition zone has nearly the same diameter (8 mm) as that of plate or as - when there is no inhibition zone.
# as §1
smiles,measurement,setting,value
"O[C@@]1(c2cccc3ccccc23)CCCC[C@H]1n1cncn1 (relative stereo) [Compound 1, cis-1-(1-naphthyl)-2-(1,2,4-triazol-1-yl)/cyclohexanol]","Protective Index, Foliar Treatment",Sphaerotheca fuliginea [1],10
same,"Protective Index, Soil Treatment",Sphaerotheca fuliginea [1],5 (Disease sign is observed on the leaf in about 30%.)
same,"Percent Disease Control, Curative Spraying",Puccinia coronata; curative,100%
same,"Percent Disease Control, Protective Spraying",Puccinia coronata; protective,100%
"O[C@@]1(c2ccc(Cl)s2)CCCCC[C@H]1n1cncn1 (relative stereo) [Compound 13, cis-1-(5-chloro-2-thienyl)-2-(1,2,4-triazol-1-yl)cycloheptanol]",Disease Degree,Rhizoctonia solani; 500 ppm,5
same,Percent Disease Control,Rhizoctonia solani; 500 ppm,95%
same,Disease Degree,Fusarium oxysporum,100
same,Percent Disease Control,Fusarium oxysporum,0%
same,"Percent Disease Control, Curative Spraying","Botrytis cinerea; Table 2, 125 ppm",94%
same,"Percent Disease Control, Protective Spraying","Botrytis cinerea; Table 2, 125 ppm",100%
same,"Percent Disease Control, Curative Spraying",Sclerotinia sclerotiorum; 125 ppm,95%
same,"Percent Disease Control, Protective Spraying",Sclerotinia sclerotiorum; 125 ppm,100%
same,"Protective Index, Foliar Treatment",Sphaerotheca fuliginea [1],10
same,"Protective Index, Soil Treatment",Sphaerotheca fuliginea [1],10
O[C@@]1(c2ccc(F)cc2)CCCCC[C@H]1n1cncn1 (relative stereo) [Compound 30],Disease Degree,Rhizoctonia solani; 31.3 ppm,18
same,Percent Disease Control,Rhizoctonia solani; 31.3 ppm,82%
same,"Percent Disease Control, Curative Spraying","Botrytis cinerea; Table 2, 31.3 ppm",86%
same,"Percent Disease Control, Protective Spraying","Botrytis cinerea; Table 2, 31.3 ppm",89%
same,"Percent Disease Control, Curative Spraying","Botrytis cinerea; Table 2, 125 ppm",94%
same,"Percent Disease Control, Protective Spraying","Botrytis cinerea; Table 2, 125 ppm",100%
same,"Percent Disease Control, Curative Spraying",Sclerotinia sclerotiorum; 31.3 ppm,94%
same,"Percent Disease Control, Protective Spraying",Sclerotinia sclerotiorum; 31.3 ppm,89%
same,"Percent Disease Control, Curative Spraying",Sclerotinia sclerotiorum; 125 ppm,96%
same,"Percent Disease Control, Protective Spraying",Sclerotinia sclerotiorum; 125 ppm,100%
same,"Foliar Treatment, Curative Effect","Sphaerotheca fuliginea [1]; second Table 4, 0.5 ppm",7 (Disease sign is observed on the leaf in about 20%.)
same,"Foliar Treatment, Protective Effect","Sphaerotheca fuliginea [1]; second Table 4, 0.5 ppm",0
same,"Soil Treatment, Protective Effect","Sphaerotheca fuliginea [1]; second Table 4, 0.5 ppm",0
same,"Foliar Treatment, Curative Effect","Sphaerotheca fuliginea [1]; second Table 4, 2.0 ppm",10
same,"Foliar Treatment, Protective Effect","Sphaerotheca fuliginea [1]; second Table 4, 2.0 ppm",9
same,"Soil Treatment, Protective Effect","Sphaerotheca fuliginea [1]; second Table 4, 2.0 ppm",0
same,"Foliar Treatment, Curative Effect","Sphaerotheca fuliginea [1]; second Table 4, 7.8 ppm",10
same,"Foliar Treatment, Protective Effect","Sphaerotheca fuliginea [1]; second Table 4, 7.8 ppm",10
same,"Soil Treatment, Protective Effect","Sphaerotheca fuliginea [1]; second Table 4, 7.8 ppm",10
same,"Foliar Treatment, Curative Effect","Sphaerotheca fuliginea [1]; second Table 4, 31.3 ppm",10
same,"Foliar Treatment, Protective Effect","Sphaerotheca fuliginea [1]; second Table 4, 31.3 ppm",10
same,"Soil Treatment, Protective Effect","Sphaerotheca fuliginea [1]; second Table 4, 31.3 ppm",10
same,Protective Effect by Vapor,"Sphaerotheca fuliginea [2]; Table 6, 0.5 ppm",-
same,Protective Effect by Vapor,"Sphaerotheca fuliginea [2]; Table 6, 2.0 ppm",-
same,Protective Effect by Vapor,"Sphaerotheca fuliginea [2]; Table 6, 7.8 ppm",+
same,Protective Effect by Vapor,"Sphaerotheca fuliginea [2]; Table 6, 31.3 ppm",+
"O[C@]1(c2ccc(Cl)cc2)CCCC[C@H]1n1cncn1 (relative stereo) [Trans-isomer of Compound 22, 1-(4-chlorophenyl)-2-(1,2,4-triazol-1-yl)cyclohexanol, reference compound]","Gray Mold, Percent Disease Control, Curative Spraying","Botrytis cinerea; Table 9, 7.8 ppm",0%
same,"Gray Mold, Percent Disease Control, Protective Spraying","Botrytis cinerea; Table 9, 7.8 ppm",0%
same,"Gray Mold, Percent Disease Control, Curative Spraying","Botrytis cinerea; Table 9, 31.3 ppm",0%
same,"Gray Mold, Percent Disease Control, Protective Spraying","Botrytis cinerea; Table 9, 31.3 ppm",3%
same,"Gray Mold, Percent Disease Control, Curative Spraying","Botrytis cinerea; Table 9, 125 ppm",2%
same,"Gray Mold, Percent Disease Control, Protective Spraying","Botrytis cinerea; Table 9, 125 ppm",3%
same,"Powdery mildew, Foliar Treatment, Curative Effect","Sphaerotheca fuliginea [1]; Table 9, 0.03 ppm",0
same,"Powdery mildew, Foliar Treatment, Protective Effect","Sphaerotheca fuliginea [1]; Table 9, 0.03 ppm",0
same,"Powdery mildew, Foliar Treatment, Curative Effect","Sphaerotheca fuliginea [1]; Table 9, 0.12 ppm",0
same,"Powdery mildew, Foliar Treatment, Protective Effect","Sphaerotheca fuliginea [1]; Table 9, 0.12 ppm",0
same,"Powdery mildew, Foliar Treatment, Curative Effect","Sphaerotheca fuliginea [1]; Table 9, 0.5 ppm",5 (Disease sign is observed on the leaf in about 30%.)
same,"Powdery mildew, Foliar Treatment, Protective Effect","Sphaerotheca fuliginea [1]; Table 9, 0.5 ppm",3 (Disease sign is observed on the leaf in about 50%.)
same,"Powdery mildew, Soil Treatment, Protective Effect","Sphaerotheca fuliginea [1]; Table 9, 0.5 ppm",0
same,"Powdery mildew, Foliar Treatment, Curative Effect","Sphaerotheca fuliginea [1]; Table 9, 2.0 ppm",9
same,"Powdery mildew, Foliar Treatment, Protective Effect","Sphaerotheca fuliginea [1]; Table 9, 2.0 ppm",10
same,"Powdery mildew, Soil Treatment, Protective Effect","Sphaerotheca fuliginea [1]; Table 9, 2.0 ppm",0
same,"Powdery mildew, Soil Treatment, Protective Effect","Sphaerotheca fuliginea [1]; Table 9, 7.8 ppm",0
same,"Powdery mildew, Soil Treatment, Protective Effect","Sphaerotheca fuliginea [1]; Table 9, 31.3 ppm",5 (Disease sign is observed on the leaf in about 30%.)
same,"Powdery mildew, Vapor Effect","Sphaerotheca fuliginea [2]; Table 9, 2.0 ppm",-
same,"Powdery mildew, Vapor Effect","Sphaerotheca fuliginea [2]; Table 9, 7.8 ppm",-
same,"Powdery mildew, Vapor Effect","Sphaerotheca fuliginea [2]; Table 9, 31.3 ppm",-
